Measured values reported in PubChem BioAssay AID248 (DTP/NCI, 2004).
Where “and” joins values, the source holds several entries; their conditions need not be identical. Identical values can stand only once. Inconclusive results and toxic doses are left out. Cut-off read from the data, not from the text of the source: active = T/C of 150% or more; inactive = T/C below 125%.

Test system: L1210 leukemia ip in BDF1 mice, survival T/C
Test: NCI In Vivo Anticancer Drug Screen. Data for tumor model L1210 Leukemia (intraperitoneal) in B6D2F1 (BDF1) mice
Conditions: endpoint: mean survival time, higher = longer survival
Summary of the method: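 Mice bearing the transplanted tumor received compound or vehicle. Survival of the treated group was divided by that of the vehicle-treated control group to give the ratio.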

[1] = dose: 50.0 mg/kg/injection, schedule: Q01DX009 (ip), vehicle: Klucel (hydroxypropylcellulose) (HPC)
[2] = dose: 100.0 mg/kg/injection, schedule: Q01DX009 (ip), vehicle: Klucel (hydroxypropylcellulose) (HPC)
[3] = dose: 100.0 mg/kg/injection, schedule: Q04DX003 (ip), vehicle: Klucel (hydroxypropylcellulose) (HPC)
[4] = dose: 200.0 mg/kg/injection, schedule: Q01DX009 (ip), vehicle: Klucel (hydroxypropylcellulose) (HPC)
[5] = dose: 200.0 mg/kg/injection, schedule: Q04DX003 (ip), vehicle: Klucel (hydroxypropylcellulose) (HPC)
[6] = dose: 100.0 mg/kg/injection, schedule: Q04DX003 (ip), vehicle: saline with Tween-80
[7] = dose: 200.0 mg/kg/injection, schedule: Q04DX003 (ip), vehicle: saline with Tween-80
[8] = dose: 400.0 mg/kg/injection, schedule: Q04DX003 (ip), vehicle: saline with Tween-80
[9] = dose: 400.0 mg/kg/injection, schedule: Q04DX003 (ip), vehicle: Klucel (hydroxypropylcellulose) (HPC)
[10] = dose: 100.0 mg/kg/injection, schedule: Q04DX002 (ip), vehicle: Klucel (hydroxypropylcellulose) (HPC)
[11] = dose: 200.0 mg/kg/injection, schedule: Q04DX002 (ip), vehicle: Klucel (hydroxypropylcellulose) (HPC)
[12] = dose: 400.0 mg/kg/injection, schedule: Q04DX002 (ip), vehicle: Klucel (hydroxypropylcellulose) (HPC)
[13] = dose: 100.0 mg/kg/injection, schedule: Q01DX001 (ip), vehicle: other
[14] = dose: 100.0 mg/kg/injection, schedule: Q01DX009 (ip), vehicle: saline
[15] = dose: 100.0 mg/kg/injection, schedule: Q04DX003 (ip), vehicle: saline
[16] = dose: 200.0 mg/kg/injection, schedule: Q01DX009 (ip), vehicle: saline
[17] = dose: 400.0 mg/kg/injection, schedule: Q01DX009 (ip), vehicle: saline

Measured: T/C

COc1cc(C=Nc2cc(Cl)c(OC)c(Cl)c2)ccc1N(CCCl)CCCl
inactive: dose: 26.0 mg/kg/injection, schedule: Q01DX001 (ip), vehicle: carboxymethylcellulose (CMC) 121 % of control | dose: 26.0 mg/kg/injection, schedule: Q01DX009 (ip), vehicle: carboxymethylcellulose (CMC) 120 % of control | dose: 29.0 mg/kg/injection, schedule: Q01DX001 (ip), vehicle: carboxymethylcellulose (CMC) 118 % of control | dose: 40.0 mg/kg/injection, schedule: Q01DX009 (ip), vehicle: carboxymethylcellulose (CMC) 94 % of control | dose: 44.0 mg/kg/injection, schedule: Q01DX001 (ip), vehicle: carboxymethylcellulose (CMC) 114 % of control | dose: 150.0 mg/kg/injection, schedule: Q01DX001 (ip), vehicle: carboxymethylcellulose (CMC) 121 % of control | dose: 225.0 mg/kg/injection, schedule: Q01DX001 (ip), vehicle: carboxymethylcellulose (CMC) 122 % of control | dose: 300.0 mg/kg/injection, schedule: Q01DX001 (ip), vehicle: carboxymethylcellulose (CMC) 122 % of control

Cc1ccc(Cl)cc1NC(=O)c1cccc(C(=O)Nc2cc(Cl)ccc2C)c1
inactive: [1] 91 % of control | [2] 100 % of control | [3] 98 % of control | [4] 91 % of control | [5] 88 % of control

O=S(=O)(Cc1ccc(Br)cc1)Cc1ccc(Br)cc1
inactive: dose: 50.0 mg/kg/injection, schedule: Q01DX001 (ip), vehicle: saline 102 % of control | dose: 100.0 mg/kg/injection, schedule: Q01DX001 (ip), vehicle: saline 90 % of control | dose: 200.0 mg/kg/injection, schedule: Q01DX001 (ip), vehicle: saline 88 % of control | dose: 400.0 mg/kg/injection, schedule: Q01DX001 (ip), vehicle: saline 90 % of control

CCOP(OCC)N1CCCCCC1=O
inactive: [6] 100 % of control | [7] 95 % of control | [8] 89 % of control

S=c1[nH]c2ccccc2c2ccccc12
inactive: [1] 96 % of control | [2] 105 % of control | [3] 97 % of control | [4] 97 % of control | [5] 90 % of control | [9] 95 % of control

NC(N)=NC(N)=Nc1ccccc1CS
inactive: dose: 75.0 mg/kg/injection, schedule: Q01DX001 (ip), vehicle: saline 101 % of control | dose: 150.0 mg/kg/injection, schedule: Q01DX001 (ip), vehicle: saline 102 % of control

OC(Cn1cnc2ccccc21)c1ccccc1 (stereo unspecified)
inactive: [3] 96 % of control | [5] 97 % of control | [9] 94 % of control

CCCCCCNC(=O)c1cccc(C(=O)NCCCCCC)c1
inactive: [10] 88 % of control | [11] 94 % of control | [12] 98 % of control

CCNC(=O)c1ccccc1-c1ccccc1C(=O)NCC
inactive: [13] 104 % of control

CCCCOC(=O)Nc1ccccc1OCC
inactive: [10] 109 % of control | [11] 106 % of control | [12] 98 % of control

O=C1OCC/C1=C1/CCOC1
inactive: dose: 50.0 mg/kg/injection, schedule: Q01DX009 (ip), vehicle: saline 91 % of control | [14] 102 % of control

O=S1(=O)C=C(Cl)C2C3CC(C(Cl)C3Cl)C21 (stereo unspecified)
inactive: dose: 5.0 mg/kg/injection, schedule: Q01DX009 (ip), vehicle: carboxymethylcellulose (CMC) 94 % of control | dose: 10.0 mg/kg/injection, schedule: Q01DX001 (ip), vehicle: carboxymethylcellulose (CMC) 94 % of control | dose: 10.0 mg/kg/injection, schedule: Q01DX009 (ip), vehicle: carboxymethylcellulose (CMC) 94 % of control | dose: 10.0 mg/kg/injection, schedule: Q04DX003 (ip), vehicle: carboxymethylcellulose (CMC) 92 % of control | dose: 20.0 mg/kg/injection, schedule: Q01DX001 (ip), vehicle: carboxymethylcellulose (CMC) 100 % of control | dose: 20.0 mg/kg/injection, schedule: Q01DX009 (ip), vehicle: carboxymethylcellulose (CMC) 91 % of control | dose: 20.0 mg/kg/injection, schedule: Q04DX003 (ip), vehicle: carboxymethylcellulose (CMC) 94 % of control | dose: 40.0 mg/kg/injection, schedule: Q01DX001 (ip), vehicle: carboxymethylcellulose (CMC) 103 % of control | dose: 40.0 mg/kg/injection, schedule: Q04DX003 (ip), vehicle: carboxymethylcellulose (CMC) 94 % of control

COC(=O)c1n[nH]c(C2OCC3OC(C)(C)OC32)c1Br (stereo unspecified)
inactive: dose: 100.0 mg/kg/injection, schedule: Q01DX005 (ip), vehicle: saline 100 % of control | dose: 200.0 mg/kg/injection, schedule: Q01DX005 (ip), vehicle: saline 91 % of control

CCCc1c(Cl)nc(Cl)nc1Cl
inactive: dose: 37.5 mg/kg/injection, schedule: Q01DX009 (ip), vehicle: acetone 111 % of control | dose: 66.0 mg/kg/injection, schedule: Q04DX003 (ip), vehicle: saline 104 % of control and 105 % of control | dose: 100.0 mg/kg/injection, schedule: Q01DX001 (ip), vehicle: carboxymethylcellulose (CMC) 100 % of control | [15] 100 % of control and 104 % of control | dose: 150.0 mg/kg/injection, schedule: Q04DX003 (ip), vehicle: saline 106 % of control and 107 % of control | dose: 200.0 mg/kg/injection, schedule: Q01DX001 (ip), vehicle: carboxymethylcellulose (CMC) 108 % of control | dose: 400.0 mg/kg/injection, schedule: Q01DX001 (ip), vehicle: carboxymethylcellulose (CMC) 96 % of control

CC(=O)c1cccc(NC(=O)c2ccc(F)cc2)c1
inactive: dose: 100.0 mg/kg/injection, schedule: Q01DX009 (ip), vehicle: saline with Tween-80 100 % of control | dose: 200.0 mg/kg/injection, schedule: Q01DX009 (ip), vehicle: saline with Tween-80 98 % of control | dose: 400.0 mg/kg/injection, schedule: Q01DX009 (ip), vehicle: saline with Tween-80 88 % of control

NP(N)(=O)c1ccccc1
inactive: [6] 107 % of control | [7] 118 % of control | [8] 105 % of control

O=C(O)C1Cc2ccccc21 (stereo unspecified)
inactive: dose: 25.0 mg/kg/injection, schedule: Q04DX002 (ip), vehicle: Klucel (hydroxypropylcellulose) (HPC) 96 % of control | dose: 50.0 mg/kg/injection, schedule: Q04DX002 (ip), vehicle: Klucel (hydroxypropylcellulose) (HPC) 96 % of control | [10] 92 % of control

Fc1ccc(NC(=S)SCc2ccc(Cl)cc2)cc1F
inactive: [6] 102 % of control | [7] 91 % of control | [8] 102 % of control

CN(O)C(=O)OC(C)(C)C
inactive: [13] 108 % of control | dose: 200.0 mg/kg/injection, schedule: Q01DX001 (ip), vehicle: other 108 % of control | dose: 400.0 mg/kg/injection, schedule: Q01DX001 (ip), vehicle: other 114 % of control

O=c1c2ccccc2nnn1-c1ccccc1Cl
inactive: [14] 105 % of control | [16] 103 % of control | [17] 89 % of control

[O-][N+]1=CCCC1
inactive: [14] 89 % of control | [15] 104 % of control | [16] 91 % of control | dose: 200.0 mg/kg/injection, schedule: Q04DX003 (ip), vehicle: saline 107 % of control | [17] 92 % of control | dose: 400.0 mg/kg/injection, schedule: Q04DX003 (ip), vehicle: saline 105 % of control

CN(C)C(=O)Sc1ccc(S(=O)(=O)F)cc1[N+](=O)[O-]
inactive: [2] 110 % of control | [4] 102 % of control

FC1(F)SC2C3CC(C4CCC=C43)C2C1(F)F (stereo unspecified)
inactive: dose: 0.78 mg/kg/injection, schedule: Q01DX009 (ip), vehicle: Klucel (hydroxypropylcellulose) (HPC) 96 % of control | dose: 1.56 mg/kg/injection, schedule: Q01DX009 (ip), vehicle: Klucel (hydroxypropylcellulose) (HPC) 93 % of control | dose: 1.56 mg/kg/injection, schedule: Q04DX003 (ip), vehicle: Klucel (hydroxypropylcellulose) (HPC) 102 % of control | dose: 3.13 mg/kg/injection, schedule: Q04DX003 (ip), vehicle: Klucel (hydroxypropylcellulose) (HPC) 100 % of control

O=C1/C(=C/c2ccc(Br)cc2)Cc2ccccc21
inactive: dose: 100.0 mg/kg/injection, schedule: Q04DX002 (ip), vehicle: saline with Tween-80 94 % of control | dose: 200.0 mg/kg/injection, schedule: Q04DX002 (ip), vehicle: saline with Tween-80 90 % of control | dose: 400.0 mg/kg/injection, schedule: Q04DX002 (ip), vehicle: saline with Tween-80 90 % of control
